# In patent publication US20250066337A1, “Amorphous Form of (S)-2-(5-((3-Ethoxypyridin-2-YL)Oxy)Pyridin-3-YL)-N-(Tetrahydrofuran-3-YL)Pyrimidine-5-Carboxamide” (Pfizer Inc., priority 2021, published 2025):
# Biological target: hDGAT2 (Homo sapiens (Human), UniProt Q96PD7)
# Assay: In vitro DGAT2 assay, determination of IC50 values
# Type: biochemical
# Conditions: geometric mean; hDGAT2 membrane fraction, [1-14C]decanoyl-CoA and 1,2-didecanoyl-sn-glycerol substrates
# Description: For the expression of hDGAT2, SF9 cells (20 L) grown in Sf900II media were infected with hDGAT2 baculovirus at a multiplicity of infection of 1 in a Wave Bioreactor System 20/50P wave bag (GE Healthcare). After 40 hours of infection, the cells were then harvested by centrifugation at 5,000×g. The cell pellets were washed by resuspending in phosphate buffered saline (PBS) and collected by centrifugation at 5,000×g. The cell paste was flash frozen in liquid N2 and stored at −80° C. until needed. All operations below were at 4° C. unless otherwise noted. The cells were resuspended in lysis buffer (50 mM Tris-HCl, pH 8.0, 250 mM sucrose) including 1 mM ethylenediaminetetraacetic acid (EDTA) and the complete protease inhibitor cocktail (Roche Diagnostics) at a ratio of 3 ml buffer per 1 g cell paste. The cells were lysed by dounce homogenizer. The cell debris was removed by centrifugation at 1,000×g for 20 min, and the supernatant was centrifuged at 100,000×g for 1 hour. […]
# For determination of IC50 values, the reactions were carried out in 384-well white Polyplates (Perkin Elmer) in a total volume of 20 μL. […] Plates were centrifuged at 2,000×g for 1 minute in an Allegra 6R Centrifuge (Beckman Coulter) and then were sealed again with fresh covers before reading in a 1450 Microbeta Wallac Trilux Scintillation Counter (Perkin Elmer).
# Chain of hDGAT2 (Q96PD7 whole entry): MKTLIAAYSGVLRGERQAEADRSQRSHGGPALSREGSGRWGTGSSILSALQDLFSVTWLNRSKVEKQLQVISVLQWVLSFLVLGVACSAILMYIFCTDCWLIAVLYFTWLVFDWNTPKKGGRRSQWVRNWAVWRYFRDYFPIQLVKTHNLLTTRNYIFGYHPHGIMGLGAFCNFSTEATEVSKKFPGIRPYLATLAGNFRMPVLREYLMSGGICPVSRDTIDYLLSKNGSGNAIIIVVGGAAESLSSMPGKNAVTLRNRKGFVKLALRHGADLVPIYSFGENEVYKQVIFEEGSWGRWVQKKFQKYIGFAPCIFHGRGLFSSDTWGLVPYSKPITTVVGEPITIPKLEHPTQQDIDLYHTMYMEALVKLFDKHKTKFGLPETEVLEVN
smiles,measurement,value
"CCOc1cccnc1Oc1cncc(-c2ncc(C(=O)N[C@H]3CCOC3)cn2)c1 [Example 1, (S)-2-(5-((3-ethoxypyridin-2-yl)oxy)pyridin-3-yl)-N-(tetrahydrofuran-3-yl)pyrimidine-5-carboxamide]",IC50,17.2 nM
